Measured values reported in US10675284B2, “Treatment of B-cell malignancies by a combination JAK and PI3K inhibitors” (Incyte Corporation, priority 2014, dated 2020).

Legend:
[1] = molecular target: human JAK2 (a.a. 828-1132) (Homo sapiens (Human), UniProt O60674); assay: In vitro JAK kinase assay (HTRF), JAK2; assay type: biochemical; settings: IC50 ratio, 1 mM ATP
[2] = molecular target: human JAK1 (a.a. 837-1142) (Homo sapiens, UniProt P23458); assay: In vitro JAK kinase assay (HTRF), JAK1; assay type: biochemical; settings: 1 mM ATP; read-out: JAK1 IC50
Sequence of human JAK1 (a.a. 837-1142) (P23458 whole entry, looked up): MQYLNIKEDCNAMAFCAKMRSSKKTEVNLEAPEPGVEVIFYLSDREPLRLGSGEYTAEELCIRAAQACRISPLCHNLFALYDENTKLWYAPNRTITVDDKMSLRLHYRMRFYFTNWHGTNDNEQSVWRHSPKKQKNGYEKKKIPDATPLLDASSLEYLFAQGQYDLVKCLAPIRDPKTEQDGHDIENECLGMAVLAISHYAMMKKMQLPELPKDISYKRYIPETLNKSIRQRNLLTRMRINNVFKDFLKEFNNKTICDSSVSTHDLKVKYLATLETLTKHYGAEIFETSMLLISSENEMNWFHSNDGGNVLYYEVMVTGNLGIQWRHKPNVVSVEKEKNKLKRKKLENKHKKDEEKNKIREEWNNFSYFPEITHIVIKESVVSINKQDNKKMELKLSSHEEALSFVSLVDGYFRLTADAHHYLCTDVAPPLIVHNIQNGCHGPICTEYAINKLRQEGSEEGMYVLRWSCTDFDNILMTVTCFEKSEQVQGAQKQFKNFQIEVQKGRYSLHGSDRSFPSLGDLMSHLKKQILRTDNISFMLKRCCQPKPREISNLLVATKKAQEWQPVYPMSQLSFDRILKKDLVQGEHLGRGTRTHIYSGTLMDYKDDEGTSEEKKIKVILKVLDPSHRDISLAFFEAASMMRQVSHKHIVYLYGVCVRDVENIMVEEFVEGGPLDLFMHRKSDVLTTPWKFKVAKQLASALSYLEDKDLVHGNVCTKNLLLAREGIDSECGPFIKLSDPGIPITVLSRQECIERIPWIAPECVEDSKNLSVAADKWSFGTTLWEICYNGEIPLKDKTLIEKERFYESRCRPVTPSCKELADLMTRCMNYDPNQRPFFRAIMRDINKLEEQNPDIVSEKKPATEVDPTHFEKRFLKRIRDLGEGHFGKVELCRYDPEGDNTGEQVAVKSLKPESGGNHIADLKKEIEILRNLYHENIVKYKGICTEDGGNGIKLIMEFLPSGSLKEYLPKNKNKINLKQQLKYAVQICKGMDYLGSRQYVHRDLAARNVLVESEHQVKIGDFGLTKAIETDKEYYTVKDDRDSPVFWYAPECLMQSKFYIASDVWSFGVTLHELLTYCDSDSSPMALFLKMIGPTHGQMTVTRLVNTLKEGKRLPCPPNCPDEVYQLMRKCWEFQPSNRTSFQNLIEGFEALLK

Pfeiffer cells [3] = assay: Western blot analysis of Pfeiffer cells; assay type: cell-based, human; settings: 4 hours, then IL-10 for 15 minutes
Method: The following materials and methods were used in the Western blot analysis infra. Cells (5 million) were lysed in a 300 μl volume of lysis buffer. Soluble fractions were collected by centrifugation. 25 μl of cell lysate were loaded into Tris-Glycine polyacrylamide gels and subjected to electrophoresis. The proteins were transferred into nitrocellulose membrane and probed with antibodies from Cell Signaling Technology for the following proteins: phospho-Stat3 Y705, phospho-Akt 5473, pim1, pim2, pim3, c-myc, phospho-p70S6K, phosho-S6, phospho-Bad S112 and actin.
IL6 and IL10 promote cell survival through the expression of Pim2, which is dependent on JAK1 activity.
Extracts were analyzed by Western blot for pAKT and pSTAT3.

Pfeiffer cells [4] = assay: Cell proliferation assay in Pfeiffer cells; assay type: cell-based, human; settings: Homo sapiens, Pfeiffer, 72 h, Pfeiffer cells, 3 days, 10% FBS + IL10, ATP readout; Compound 16 at 1 μM in combination; read-out: IC50, cell growth
Method: Diffuse large B cell lymphoma cells were seeded at 2000 cell/well in 96 well culture plates in the absence or presence of 10 ng/ml IL10. Compounds were added to these cells after dilution in DMSO first, followed by dilution in culture medium (4× concentration). The cells were cultured in an incubator for 3 days with 5% CO2. Cell proliferation was assessed using the Cell titer-glow assay (Promega, Madison, Wis.).

Pfeiffer cells [5] = assay: Annexin-V staining of Pfeiffer cells (apoptosis); assay type: cell-based, human; settings: 3 days, 10% FBS + IL10, Compound 16 at 1 μM

Sequence of human JAK2 (a.a. 828-1132) (O60674 828-1132): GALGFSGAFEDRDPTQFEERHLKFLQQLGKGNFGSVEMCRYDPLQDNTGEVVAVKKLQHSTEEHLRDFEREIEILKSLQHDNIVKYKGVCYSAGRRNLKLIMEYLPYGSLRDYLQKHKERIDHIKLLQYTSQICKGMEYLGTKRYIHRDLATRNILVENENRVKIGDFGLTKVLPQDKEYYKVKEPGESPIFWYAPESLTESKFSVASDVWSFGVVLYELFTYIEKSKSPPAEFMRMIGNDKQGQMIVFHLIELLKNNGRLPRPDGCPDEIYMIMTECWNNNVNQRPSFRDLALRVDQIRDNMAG

JAK2/JAK1 [1]: >10
IC50 [2]: < 10 nM
Structure (SMILES): C[C@H](NC(=O)c1cc(F)c(N2CC(CC#N)(n3cc(-c4ncnc5[nH]ccc45)cn3)C2)cc1F)C(F)(F)F [Compound 16, 4-{3-(cyanomethyl)-3-[4-(7H-pyrrolo[2,3-d]pyrimidin-4-yl)-1H-pyrazol-1-yl]azetidin-1-yl}-2,5-difluoro-N-[(1S)-2,2,2-trifluoro-1-methylethyl]benzamide]
STAT3 phosphorylation (Pfeiffer cells [3]): inhibition
pAKT (Pfeiffer cells [3]): no effect
IC50 (Pfeiffer cells [4]): > 1000 nM
apoptosis (Annexin-V staining) (Pfeiffer cells [5]): neither agent alone had a significant effect
